Results published in BindingDB's records for doi:10.1016/S0960-894X(01)80999-9 (1993).

Assays:
[1] = In vitro antagonistic activity towards LTB4 receptor was evaluated by inhibition of binding of [3H]LTB4 to human neutrophils
[2] = biological target: Leukotriene B4 receptor (Cavia porcellus); assay: Compound was evaluated for inhibition of binding of [3H]LTB4 to LTB4 receptor in guinea-pig lung membranes

| Ki [1] [nM] | Ki [2] [nM] | Structure (SMILES) |
| --- | --- | --- |
| 751 | – | CCc1cc(C(C)=O)c(O)cc1OCCCOc1ccc2c(=O)c3cc(C(=O)O)ccc3oc2c1 [disodium 6-[3-(4-acetyl-2-ethyl-5-olatophenoxy)propoxy]-9-oxo-9H-2-xanthenecarboxylate] |
| 7.8 | – | COc1ccc(/C=C/CCCCOc2ccc(C(=O)c3cccc(C(=O)O)c3)cc2CCC(=O)O)cc1 [(Z)-3-{3-(2-Carboxy-ethyl)-4-[6-(4-methoxy-phenyl)-hex-5-enyloxy]-benzoyl}-benzoic acid] |
| – | 45 | COc1ccc(/C=C/CCCCOc2ccc3c(=O)c4cc(C(=O)O)ccc4oc3c2CCC(=O)O)cc1 [LY-210073] |
| 6.8 | – | CCc1cc(C(C)=O)c(O)cc1OCCCOc1ccc(C(=O)c2cccc(C(=O)O)c2)cc1CCC(=O)O [3-[2-[3-(4-acetyl-2-ethyl-5-olatophenoxy)propoxy]-5-(3-carboxylatobenzoyl)phenyl]propanoate] |
